Reference: ChEMBL document CHEMBL3046898, “Synthesis and characterization of flurbiprofen hydrazide derivatives as potential anti-HCV, anticancer and antimicrobial agents” (2013)
Active and inactive are the calls of the source. The rule behind the calls is not given here.

Columns and labels:
[1] = system: T47D; experiment: Cytotoxicity against human T47D assessed as cell growth at 10 uM after 48 hrs by SRB assay; type: functional; conditions: read-out: Activity
[2] = system: PC-3; experiment: Cytotoxicity against human PC3 assessed as cell growth at 10 uM after 48 hrs by SRB assay; type: functional; conditions: PC-3, 48 h, read-out: Activity
[3] = system: CAKI-1; experiment: Cytotoxicity against human Caki1 assessed as cell growth at 10 uM after 48 hrs by SRB assay; type: functional; conditions: CAKI-1, 48 h, read-out: Activity
[4] = system: Staphylococcus aureus; experiment: Antibacterial activity against Staphylococcus aureus at 100 to 200 ug/ml after 24 hrs by microwell dilution assay; type: functional, organism-based
[5] = system: Staphylococcus cohnii; experiment: Antibacterial activity against Staphylococcus cohnii at 100 to 200 ug/ml after 24 hrs by microwell dilution assay; type: functional, organism-based
[6] = system: Micrococcus luteus; experiment: Antibacterial activity against Micrococcus luteus at 100 to 200 ug/ml after 24 hrs by microwell dilution assay; type: functional, organism-based
[7] = system: Hepacivirus hominis; experiment: Inhibition of HCV N-terminal His-tagged NS5B RNA dependent RNA polymerase expressed in Escherichia coli DH5alpha using poly rA/U12 as primer at 200 uM after 60 mins by liquid scintillation counting
[8] = system: Staphylococcus aureus; experiment: Antibacterial activity against Staphylococcus aureus at 10 mg/ml after 24 hrs by disc diffusion method; type: functional
[9] = system: Staphylococcus cohnii; experiment: Antibacterial activity against Staphylococcus cohnii at 10 mg/ml after 24 hrs by disc diffusion method; type: functional
[10] = system: Staphylococcus aureus; experiment: Antibacterial activity against Staphylococcus aureus at 200 ug/disc after 24 hrs by disc diffusion method; type: functional, organism-based
[11] = system: Staphylococcus cohnii; experiment: Antibacterial activity against Staphylococcus cohnii at 200 ug/disc after 24 hrs by disc diffusion method; type: functional, organism-based
[12] = system: Micrococcus lylae; experiment: Antibacterial activity against Micrococcus lylae at 6.25 to 200 ug/ml after 24 hrs by microwell dilution method; type: functional, organism-based
[13] = system: Pseudomonas aeruginosa; experiment: Antibacterial activity against Pseudomonas aeruginosa at 6.25 to 200 ug/ml after 24 hrs by microwell dilution method; type: functional, organism-based
[14] = system: Proteus vulgaris; experiment: Antibacterial activity against Proteus vulgaris at 6.25 to 200 ug/ml after 24 hrs by microwell dilution method; type: functional, organism-based
[15] = system: Escherichia coli; experiment: Antibacterial activity against Escherichia coli at 6.25 to 200 ug/ml after 24 hrs by microwell dilution method; type: functional, organism-based
[16] = system: Staphylococcus cohnii; experiment: Antibacterial activity against Staphylococcus cohnii at 6.25 to 200 ug/ml after 24 hrs by microwell dilution assay; type: functional, organism-based
[17] = system: Staphylococcus aureus; experiment: Antibacterial activity against Staphylococcus aureus at 6.25 to 200 ug/ml after 24 hrs by microwell dilution assay; type: functional, organism-based
[18] = system: Micrococcus luteus; experiment: Antibacterial activity against Micrococcus luteus at 6.25 to 200 ug/ml after 24 hrs by microwell dilution method; type: functional, organism-based
[19] = system: Aspergillus; experiment: Antifungal activity against Aspergillus at 10 mg/ml after 72 hrs by disc diffusion method; type: functional, organism-based
[20] = system: Pichia membranifaciens; experiment: Antifungal activity against Pichia membranifaciens at 10 mg/ml after 48 hrs by disc diffusion method; type: functional, organism-based
[21] = system: Kluyveromyces marxianus; experiment: Antifungal activity against Kluyveromyces marxianus at 10 mg/ml after 48 hrs by disc diffusion method; type: functional, organism-based
[22] = system: Schwanniomyces occidentalis; experiment: Antifungal activity against Schwanniomyces occidentalis at 10 mg/ml after 48 hrs by disc diffusion method; type: functional, organism-based
[23] = system: Nakaseomyces glabratus; experiment: Antifungal activity against Candida glabrata at 10 mg/ml after 48 hrs by disc diffusion method; type: functional, organism-based
[24] = system: Candida parapsilosis; experiment: Antifungal activity against Candida parapsilosis at 10 mg/ml after 48 hrs by disc diffusion method; type: functional, organism-based
[25] = system: Candida tropicalis; experiment: Antifungal activity against Candida tropicalis at 10 mg/ml after 48 hrs by disc diffusion method; type: functional, organism-based
[26] = system: Candida albicans; experiment: Antifungal activity against Candida albicans at 10 mg/ml after 48 hrs by disc diffusion method; type: functional, organism-based
[27] = system: Photorhabdus luminescens; experiment: Antibacterial activity against Photorhabdus luminescens at 10 mg/ml after 24 hrs by disc diffusion method; type: functional, organism-based
[28] = system: Klebsiella aerogenes; experiment: Antibacterial activity against Enterobacter aerogenes at 6.25 to 200 ug/ml after 24 hrs by microwell dilution method; type: functional, organism-based
[29] = system: Photorhabdus luminescens; experiment: Antibacterial activity against Photorhabdus luminescens at 6.25 to 200 ug/ml after 24 hrs by microwell dilution method; type: functional, organism-based
[30] = system: Acinetobacter radioresistens; experiment: Antibacterial activity against Acinetobacter radioresistens at 6.25 to 200 ug/ml after 24 hrs by microwell dilution method; type: functional, organism-based
[31] = system: Salmonella paratyphi; experiment: Antibacterial activity against Salmonella paratyphi at 6.25 to 200 ug/ml after 24 hrs by microwell dilution method; type: functional, organism-based; conditions: Salmonella enterica subsp. enterica serovar Paratyphi A
[32] = system: SR; experiment: Cytotoxicity against human SR assessed as cell growth at 10 uM after 48 hrs by SRB assay; type: functional; conditions: read-out: Activity
[33] = system: Klebsiella aerogenes; experiment: Antibacterial activity against Enterobacter aerogenes at 10 mg/ml after 24 hrs by disc diffusion method; type: functional, organism-based
[34] = system: Acinetobacter radioresistens; experiment: Antibacterial activity against Acinetobacter radioresistens at 10 mg/ml after 24 hrs by disc diffusion method; type: functional, organism-based
[35] = system: Salmonella paratyphi; experiment: Antibacterial activity against Salmonella paratyphi at 10 mg/ml after 24 hrs by disc diffusion method; type: functional, organism-based; conditions: Salmonella enterica subsp. enterica serovar Paratyphi A
[36] = system: Micrococcus lylae; experiment: Antibacterial activity against Micrococcus lylae at 10 mg/ml after 24 hrs by disc diffusion method; type: functional, organism-based
[37] = system: Pseudomonas aeruginosa; experiment: Antibacterial activity against Pseudomonas aeruginosa at 10 mg/ml after 24 hrs by disc diffusion method; type: functional, organism-based
[38] = system: Escherichia coli; experiment: Antibacterial activity against Escherichia coli at 10 mg/ml after 24 hrs by disc diffusion method; type: functional, organism-based
[39] = system: Proteus vulgaris; experiment: Antibacterial activity against Proteus vulgaris at 10 mg/ml after 24 hrs by disc diffusion method; type: functional, organism-based
[40] = system: Micrococcus luteus; experiment: Antibacterial activity against Micrococcus luteus at 10 mg/ml after 24 hrs by disc diffusion method; type: functional, organism-based
[41] = system: MDA-MB-468; experiment: Cytotoxicity against human MDA-MB-468 assessed as cell growth at 10 uM after 48 hrs by SRB assay; type: functional; conditions: MDA-MB-468, 48 h, read-out: Activity

Compound	growth at 10 µM [1]	inhibition [7]	Activity [12]	Activity [13]	Activity [14]	Activity [15]	Activity [16]	Activity [17]	Activity [18]	Activity [19]	Activity [20]	Activity [21]	Activity [22]	Activity [23]	Activity [24]	Activity [25]	Activity [26]	Activity [27]	Activity [28]	Activity [29]	further results
CC(C(=O)NN1C(=O)CSC1c1ccc(Cl)cc1)c1ccc(-c2ccccc2)c(F)c1 (stereo not drawn)	50.9%	8%	–	–	–	–	–	–	–	–	–	–	–	–	–	–	–	–	–	–	growth at 10 µM [2]: 49.2%; growth at 10 µM [3]: 29.6%; Activity [4]: Active; Activity [5]: Active; Activity [6]: Active
CC(C(=O)NN1C(=O)CSC1c1ccc([N+](=O)[O-])o1)c1ccc(-c2ccccc2)c(F)c1 (stereo not drawn)	–	8%	–	–	–	–	–	–	–	–	–	–	–	–	–	–	–	–	–	–	zone of inhibition at 10000 µg/mL ([8]; read-out: DIZ): 10 mm; zone of inhibition at 10000 µg/mL ([9]; read-out: DIZ): 10 mm; Activity [4]: Active; Activity [5]: Active; Activity [6]: Active
CC1(C)S[C@@H]2[C@H](NC(=O)[C@H](N)c3ccccc3)C(=O)N2[C@H]1C(=O)O	–	–	–	–	–	–	–	–	–	–	–	–	–	–	–	–	–	–	–	–	Activity [10]: inactive; Activity [11]: inactive
COc1ccc(/C=N/NC(=O)C(C)c2ccc(-c3ccccc3)c(F)c2)cc1 (stereo not drawn)	57.4%	8%	inactive	inactive	inactive	inactive	inactive	inactive	inactive	inactive	inactive	inactive	inactive	inactive	inactive	inactive	inactive	inactive	inactive	inactive	Activity [30]: inactive; Activity [31]: inactive; growth at 10 µM [32]: 46%; Activity [33]: inactive; Activity [34]: inactive; Activity [35]: inactive; Activity [36]: inactive; Activity [37]: inactive; Activity [38]: inactive; Activity [39]: inactive; Activity [40]: inactive; Activity [8]: inactive; Activity [9]: inactive
CCN1C(=O)CS/C1=N\NC(=O)C(C)c1ccc(-c2ccccc2)c(F)c1 (stereo not drawn)	55.2%	8%	inactive	inactive	inactive	inactive	inactive	inactive	inactive	inactive	inactive	inactive	inactive	inactive	inactive	inactive	inactive	inactive	inactive	inactive	growth at 10 µM [41]: 43.6%; Activity [30]: inactive; Activity [31]: inactive; Activity [33]: inactive; Activity [34]: inactive; Activity [35]: inactive; Activity [36]: inactive; Activity [37]: inactive; Activity [38]: inactive; Activity [39]: inactive; Activity [40]: inactive; Activity [8]: inactive; Activity [9]: inactive
CC(C(=O)N/N=C/c1c(F)cccc1F)c1ccc(-c2ccccc2)c(F)c1 (stereo not drawn)	55.3%	8%	inactive	inactive	inactive	inactive	inactive	inactive	inactive	inactive	inactive	inactive	inactive	inactive	inactive	inactive	inactive	inactive	inactive	inactive	Activity [30]: inactive; Activity [31]: inactive; Activity [33]: inactive; Activity [34]: inactive; Activity [35]: inactive; Activity [36]: inactive; Activity [37]: inactive; Activity [38]: inactive; Activity [39]: inactive; Activity [40]: inactive; Activity [8]: inactive; Activity [9]: inactive
